Results taken from patent US6603023B2 (priority 1996, dated 2003).
Where two headings read alike, the source gives them in different places.

How the values were obtained:
[1] = system: CCRF-CEM human T-cell acute lymphoblastic leukemia cell line; test: XTT cytotoxicity (cell growth inhibition), CCRF-CEM; conditions: for Rel. Value (potency relative to Epo B): CCRF-CEM leukemic cells
Protocol: The DC-3F hamster lung fibroblast cell line and its actinomycin D-selected sublines (DC-3F/ADII and DC-3F/ADX) were obtained from the Memorial Sloan-Kettering Cancer Center (MSKCC).
(§1) The drug-resistant cell lines were continuously cultured in the presence of the selecting agent, AD, DX, VBL or VM to maintain the drug resistant phenotypes. […] All cells were cultured in RPMI 1640-10% FBS at 37° C. 5% CO2 (see below).
(§2) The cells were cultured at an initial density of 5×10^4 cells/mL. They were maintained in a 5% CO2-humidified atmosphere at 37° C. in RPMI-1640 medium (GIBCO-BRL, Gaithersburg, Md.) containing penicillin (100 U/mL), streptomycin ([…]) (GIBCO-BRL) and 10% heat inactivate fetal bovine serum. Culture for cell suspension (such as for CCRF-CEM, P388 and sublines), were performed by the XTT-microculture tetrazonium method (Scudiero, D. A. et al., Cancer Res. 1988, 48, 4827-4833) in duplicate in 96-well microtiter plates.
(§3) 2′,3′-Bis(methoxy-4-nitro-5-sufophenyl)-5-[(phenylamino)carbonyl]2H-tetrazolium hyudroxide (XTT) was prepared at 1 mg/mL in prewarmed (37° C.) medium without serum. Phenazine methosulfate (PMS) and fresh XTT were mixed together to obtain 0.025 mM PMS-XTT solution (25 μL of the stock 5 mM PMS was added per 5 mL of 1 mg/mL XTT). Following a 72 h incubation, 50 μL of the assay aliquots were added to each well of the cell culture. After incubation at 37° C. for 4 h, absorbance at 450 nm and 630 nm was measured with a microplate reader (EL340, Bio-Tek Instruments, Inc., Winooski, Vt.).

[2] = system: CCRF-CEM/VBL100; test: cells; assay type: cell-based, human
Protocol: as §1, §2, §3

[3] = system: CCRF-CEM/VM1; test: cells; assay type: cell-based, human; conditions: Table 6
Protocol: as §1, §2, §3

[4] = Table 5, CCRF-CEM/VLB, single determinations, read-out: IC50
[5] = Table 7, CEM/VBL, read-out: IC50

Compound | IC50 ([1]; Table 5, single determinations) | IC50 ([1]; Table 6, single determinations, listed as 8) | IC50 ([1]; Table 6, single determinations, listed as EPOTHILONE B (Synthetic)) | IC50 ([1]; Table 7, CEM, listed as synthetic epothilone B) | IC50 ([1]; read-out: IC50 (mean ± of determinations, in parentheses), Table 6) | IC50 [2, 4] | IC50 ([2]; Table 6, read-out: IC50 (mean ± of determinations, in parentheses)) | IC50 ([2]; Table 6, single determinations, listed as 8, read-out: IC50) | IC50 ([2]; Table 6, single determinations, listed as EPOTHILONE B (Synthetic), read-out: IC50) | IC50 ([2]; Table 7, CEM/VBL, listed as synthetic epothilone B, read-out: IC50) | IC50 ([3]; read-out: IC50 (mean ± of determinations, in parentheses)) | IC50 ([3]; single determinations, listed as 8, read-out: IC50) | IC50 ([3]; single determinations, listed as EPOTHILONE B (Synthetic), read-out: IC50) | IC50 ([1]; Table 7, CEM) | IC50 [2, 5] | IC50 ([2]; read-out: IC50) | IC50 [1] | Rel. Value (potency relative to Epo B) [1] | fold more potent than Taxol ([1]; CCRF-CEM cells)
C/C(=C\c1csc(C)n1)[C@@H]1C[C@@H]2O[C@]2(C)CCC[C@H](C)[C@H](O)[C@@H](C)C(=O)C(C)(C)[C@@H](O)CC(=O)O1 [#8, epothilone B] | 0.42 nM | 0.82 nM | 0.55 nM | 0.82 nM | 0.35 nM | 1.7 nM | 2.13 nM | 2.9 nM | 3.1 nM | 2.93 nM | 1.26 nM | 4.4 nM | 1.8 nM |  |  |  |  |  | 
C/C1=C/C[C@@H](/C(C)=C/c2ccccc2)OC(=O)C[C@H](O)C(C)(C)C(=O)[C@H](C)[C@@H](O)[C@@H](C)CCC1 [#22] | 98 nM |  |  |  |  | 146 nM |  |  |  |  |  |  |  | 98 nM | 146 nM | 146 nM |  |  | 
CCC/C1=C\C[C@@H](/C(C)=C/c2csc(C)n2)OC(=O)C[C@H](O)C(C)(C)C(=O)[C@H](C)[C@@H](O)[C@@H](C)CCC1 [#17] | 90 nM |  |  |  |  | 254 nM |  |  |  |  |  |  |  | 90 nM | 254 nM | 254 nM | 90 nM | 1/257 | 
CC[C@@]12CCC[C@H](C)[C@H](O)[C@@H](C)C(=O)C(C)(C)[C@@H](O)CC(=O)O[C@H](/C(C)=C/c3csc(C)n3)C[C@@H]1O2 [#27] | 1 nM |  |  |  |  | 7.2 nM |  |  |  |  |  |  |  | 1 nM | 7.2 nM | 7.2 nM | 1 nM |  | > 2 fold
CCC1=CCC(C(C)=Cc2csc(C)n2)OC(=O)CC(O)C(C)(C)C(=O)C(C)C(O)C(C)CCC1 (stereo not drawn) [#26] | 55 nM |  |  |  |  | 197 nM |  |  |  |  |  |  |  | 54.5 nM | 197 nM | 197 nM | 5 nM | 1/157 | 
